Assay results published in PubChem BioAssay AID248 (DTP/NCI, 2004).
Values joined by “and” are separate entries in the source; they are usually repeats but may differ in a detail not shown here. Identical values can stand only once. Toxic doses and inconclusive results are not listed. Rule as the data show it: active = T/C of 150% or more; inactive = T/C below 125%.

System: L1210 leukemia ip in BDF1 mice, survival T/C
Test: NCI In Vivo Anticancer Drug Screen. Data for tumor model L1210 Leukemia (intraperitoneal) in B6D2F1 (BDF1) mice
Settings: endpoint: mean survival time, higher = longer survival
In short: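 Survival endpoint. Drug-treated group vs vehicle group, expressed as T divided by C. Tumor passaged by transplantation.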

[1] = dose: 100.0 mg/kg/injection, schedule: Q01DX009 (ip), vehicle: Klucel (hydroxypropylcellulose) (HPC)
[2] = dose: 200.0 mg/kg/injection, schedule: Q01DX009 (ip), vehicle: Klucel (hydroxypropylcellulose) (HPC)
[3] = dose: 400.0 mg/kg/injection, schedule: Q01DX009 (ip), vehicle: Klucel (hydroxypropylcellulose) (HPC)
[4] = dose: 100.0 mg/kg/injection, schedule: Q04DX002 (ip), vehicle: saline
[5] = dose: 200.0 mg/kg/injection, schedule: Q04DX002 (ip), vehicle: saline
[6] = dose: 100.0 mg/kg/injection, schedule: Q01DX001 (ip), vehicle: carboxymethylcellulose (CMC)
[7] = dose: 100.0 mg/kg/injection, schedule: Q04DX003 (ip), vehicle: saline with Tween-80
[8] = dose: 200.0 mg/kg/injection, schedule: Q04DX003 (ip), vehicle: saline with Tween-80
[9] = dose: 400.0 mg/kg/injection, schedule: Q04DX003 (ip), vehicle: saline with Tween-80

Measured: T/C

Cc1ccc(S(=O)(=O)OCC2(COS(=O)(=O)c3ccc(C)cc3)CCC2(COS(=O)(=O)c2ccc(C)cc2)COS(=O)(=O)c2ccc(C)cc2)cc1
inactive: dose: 50.0 mg/kg/injection, schedule: Q01DX009 (ip), vehicle: saline 97 % of control | dose: 75.0 mg/kg/injection, schedule: Q01DX001 (ip), vehicle: saline 93 % of control | dose: 100.0 mg/kg/injection, schedule: Q01DX009 (ip), vehicle: saline 89 % of control | dose: 150.0 mg/kg/injection, schedule: Q01DX001 (ip), vehicle: saline 96 % of control | dose: 200.0 mg/kg/injection, schedule: Q01DX009 (ip), vehicle: saline 89 % of control | dose: 300.0 mg/kg/injection, schedule: Q01DX001 (ip), vehicle: saline 93 % of control

CCOP(=S)(N1CC1C)N1CC1C (stereo unspecified)
inactive: dose: 25.0 mg/kg/injection, schedule: Q01DX Z (ip), vehicle: carboxymethylcellulose (CMC) 103 % of control | dose: 50.0 mg/kg/injection, schedule: Q01DX Z (ip), vehicle: carboxymethylcellulose (CMC) 105 % of control | dose: 100.0 mg/kg/injection, schedule: Q01DX Z (ip), vehicle: carboxymethylcellulose (CMC) 108 % of control | dose: 200.0 mg/kg/injection, schedule: Q01DX Z (ip), vehicle: carboxymethylcellulose (CMC) 121 % of control

COC(OC)c1cc(=O)[nH]cn1
inactive: [1] 94 % of control | [2] 106 % of control | [3] 107 % of control

CC([NH-])C(C)[NH-].CC([NH-])C(C)[NH-].[Cl][Co][Cl] (stereo unspecified)
inactive: dose: 50.0 mg/kg/injection, schedule: Q04DX002 (ip), vehicle: saline 102 % of control | [4] 112 % of control | [5] 122 % of control

CCSC(C(O)C(O)C(O)C(O)CO)n1cnc2c(=S)nc[nH]c21 (stereo unspecified)
inactive: dose: 100.0 mg/kg/injection, schedule: Q01DX001 (ip), vehicle: saline 105 % of control | dose: 100.0 mg/kg/injection, schedule: Q04DX003 (ip), vehicle: saline 96 % of control | dose: 200.0 mg/kg/injection, schedule: Q01DX001 (ip), vehicle: saline 105 % of control | dose: 200.0 mg/kg/injection, schedule: Q04DX003 (ip), vehicle: saline 100 % of control | dose: 400.0 mg/kg/injection, schedule: Q01DX001 (ip), vehicle: saline 103 % of control | dose: 400.0 mg/kg/injection, schedule: Q04DX003 (ip), vehicle: saline 96 % of control

CC12CCC(O)(CC1)CC2(O)c1ccccc1 (stereo unspecified)
inactive: [4] 102 % of control | [5] 95 % of control | dose: 400.0 mg/kg/injection, schedule: Q04DX002 (ip), vehicle: saline 98 % of control

COc1ccc(NC(=O)Nc2ccc(SC)cc2)c(Cl)c1
inactive: [1] 107 % of control | [2] 93 % of control | [3] 104 % of control

NC(=O)c1cc([N+](=O)[O-])ccc1N
inactive: dose: 100.0 mg/kg/injection, schedule: Q01DX001 (ip), vehicle: other 103 % of control | dose: 100.0 mg/kg/injection, schedule: Q04DX003 (ip), vehicle: saline sonified 103 % of control | dose: 200.0 mg/kg/injection, schedule: Q01DX001 (ip), vehicle: other 112 % of control | dose: 200.0 mg/kg/injection, schedule: Q04DX003 (ip), vehicle: saline sonified 105 % of control | dose: 400.0 mg/kg/injection, schedule: Q01DX001 (ip), vehicle: other 95 % of control | dose: 400.0 mg/kg/injection, schedule: Q04DX003 (ip), vehicle: saline sonified 111 % of control

O=C(Nc1ccc(Cl)c([N+](=O)[O-])c1)Nc1nnc(Br)s1
inactive: [1] 104 % of control | [2] 90 % of control | [3] 97 % of control

CC(C)C[CH2][Pb]([CH2]CC(C)C)([CH2]CC(C)C)[O]C(=O)C(Cl)(Cl)Cl
inactive: dose: 3.12 mg/kg/injection, schedule: Q01DX009 (ip), vehicle: Klucel (hydroxypropylcellulose) (HPC) 98 % of control | dose: 3.12 mg/kg/injection, schedule: Q04DX002 (ip), vehicle: Klucel (hydroxypropylcellulose) (HPC) 96 % of control | dose: 6.25 mg/kg/injection, schedule: Q01DX009 (ip), vehicle: Klucel (hydroxypropylcellulose) (HPC) 95 % of control | dose: 6.25 mg/kg/injection, schedule: Q04DX002 (ip), vehicle: Klucel (hydroxypropylcellulose) (HPC) 115 % of control | dose: 12.5 mg/kg/injection, schedule: Q01DX009 (ip), vehicle: Klucel (hydroxypropylcellulose) (HPC) 98 % of control | dose: 12.5 mg/kg/injection, schedule: Q04DX002 (ip), vehicle: Klucel (hydroxypropylcellulose) (HPC) 93 % of control and 87 % of control

COC(=O)C1(N(C)C)c2ccccc2-c2ccccc21
inactive: [6] 105 % of control

CC(=O)Oc1cccc2cc3cc(C)cc(OC(C)=O)c3c(OC(C)=O)c12
inactive: dose: 0.5 mg/kg/injection, schedule: Q01DX001 (ip), vehicle: saline 106 % of control | dose: 1.0 mg/kg/injection, schedule: Q01DX001 (ip), vehicle: saline 104 % of control | dose: 2.0 mg/kg/injection, schedule: Q01DX001 (ip), vehicle: saline 108 % of control | dose: 4.0 mg/kg/injection, schedule: Q01DX001 (ip), vehicle: saline 110 % of control | dose: 5.0 mg/kg/injection, schedule: Q01DX001 (ip), vehicle: saline 108 % of control | dose: 8.0 mg/kg/injection, schedule: Q01DX001 (ip), vehicle: saline 116 % of control

COC(C)(C)CN(CCCNC(=S)Nc1ccccc1)C(=S)Nc1ccccc1
inactive: dose: 50.0 mg/kg/injection, schedule: Q01DX001 (ip), vehicle: carboxymethylcellulose (CMC) 103 % of control | [6] 97 % of control | dose: 200.0 mg/kg/injection, schedule: Q01DX001 (ip), vehicle: carboxymethylcellulose (CMC) 86 % of control | dose: 400.0 mg/kg/injection, schedule: Q01DX001 (ip), vehicle: carboxymethylcellulose (CMC) 93 % of control

CCOC(=O)c1nc2cc(C)c(C)cc2[nH]c1=O
inactive: [7] 92 % of control | [8] 99 % of control | [9] 93 % of control

CC(=O)[O][Pb]([CH3])([CH3])[CH3]
inactive: dose: 5.0 mg/kg/injection, schedule: Q01DX001 (ip), vehicle: carboxymethylcellulose (CMC) 110 % of control | dose: 10.0 mg/kg/injection, schedule: Q01DX001 (ip), vehicle: carboxymethylcellulose (CMC) 103 % of control

CN(C)C(=S)Oc1c([N+](=O)[O-])cc([N+](=O)[O-])cc1C(C)(C)C
inactive: dose: 25.0 mg/kg/injection, schedule: Q04DX002 (ip), vehicle: saline with Tween-80 86 % of control | dose: 50.0 mg/kg/injection, schedule: Q04DX002 (ip), vehicle: saline with Tween-80 86 % of control

Cc1ccc(C(O)c2nnc(C(O)c3ccc(C)cc3)nn2)cc1 (stereo unspecified)
inactive: dose: 100.0 mg/kg/injection, schedule: Q04DX002 (ip), vehicle: Klucel (hydroxypropylcellulose) (HPC) 88 % of control and 107 % of control and 100 % of control | dose: 200.0 mg/kg/injection, schedule: Q04DX002 (ip), vehicle: Klucel (hydroxypropylcellulose) (HPC) 100 % of control and 96 % of control | dose: 400.0 mg/kg/injection, schedule: Q04DX002 (ip), vehicle: Klucel (hydroxypropylcellulose) (HPC) 96 % of control and 100 % of control

O=C(Nc1cccc(C(F)(F)F)c1)Nc1ccccn1
inactive: dose: 100.0 mg/kg/injection, schedule: Q01DX009 (ip), vehicle: gum acacia 99 % of control | dose: 200.0 mg/kg/injection, schedule: Q01DX009 (ip), vehicle: gum acacia 92 % of control | dose: 400.0 mg/kg/injection, schedule: Q01DX009 (ip), vehicle: gum acacia 89 % of control

CN(C)c1ccc(CNc2cccc([N+](=O)[O-])c2)cc1
inactive: dose: 100.0 mg/kg/injection, schedule: Q01DX001 (ip), vehicle: saline with Tween-80 96 % of control | dose: 200.0 mg/kg/injection, schedule: Q01DX001 (ip), vehicle: saline with Tween-80 90 % of control | dose: 400.0 mg/kg/injection, schedule: Q01DX001 (ip), vehicle: saline with Tween-80 95 % of control

COC(=O)CNC(=O)C(Cc1ccc(OCc2ccccc2)cc1)NC=O (stereo unspecified)
inactive: dose: 100.0 mg/kg/injection, schedule: Q01DX009 (ip), vehicle: saline with Tween-80 89 % of control | [7] 105 % of control | dose: 200.0 mg/kg/injection, schedule: Q01DX009 (ip), vehicle: saline with Tween-80 90 % of control | [8] 100 % of control | dose: 400.0 mg/kg/injection, schedule: Q01DX009 (ip), vehicle: saline with Tween-80 90 % of control | [9] 102 % of control

CCOC(=O)/C(C(C)=O)=C(/O)c1ccc(OC(F)(F)C(F)Cl)cc1OC(F)(F)C(F)Cl.CCOC(=O)/C(C(C)=O)=C(/O)c1ccc(OC(F)(F)C(F)Cl)cc1OC(F)(F)C(F)Cl.[Cu] (stereo unspecified)
inactive: [1] 88 % of control | dose: 100.0 mg/kg/injection, schedule: Q04DX003 (ip), vehicle: Klucel (hydroxypropylcellulose) (HPC) 100 % of control | [2] 94 % of control | dose: 200.0 mg/kg/injection, schedule: Q04DX003 (ip), vehicle: Klucel (hydroxypropylcellulose) (HPC) 101 % of control | dose: 400.0 mg/kg/injection, schedule: Q04DX003 (ip), vehicle: Klucel (hydroxypropylcellulose) (HPC) 101 % of control
